Results on 20 molecules are retold here after ChEMBL document CHEMBL1136208, “Bone-targeted Src kinase inhibitors: novel pyrrolo- and pyrazolopyrimidine analogues” (Bioorg Med Chem Lett, 2003).

One may read the IC50 as the concentration that gives 50% inhibition. High values mean a need for much substance, low ones inhibition by little substance.

For this experiment, the target named is Proto-oncogene tyrosine-protein kinase Src (Homo sapiens, UniProt P12931). Description: In vitro inhibition of Src protein tyrosine kinase using the Scintillation proximity kinase assay. Also noted: species or system Oryctolagus cuniculus.
Chain of Proto-oncogene tyrosine-protein kinase Src (P12931 2-536 limits assumed): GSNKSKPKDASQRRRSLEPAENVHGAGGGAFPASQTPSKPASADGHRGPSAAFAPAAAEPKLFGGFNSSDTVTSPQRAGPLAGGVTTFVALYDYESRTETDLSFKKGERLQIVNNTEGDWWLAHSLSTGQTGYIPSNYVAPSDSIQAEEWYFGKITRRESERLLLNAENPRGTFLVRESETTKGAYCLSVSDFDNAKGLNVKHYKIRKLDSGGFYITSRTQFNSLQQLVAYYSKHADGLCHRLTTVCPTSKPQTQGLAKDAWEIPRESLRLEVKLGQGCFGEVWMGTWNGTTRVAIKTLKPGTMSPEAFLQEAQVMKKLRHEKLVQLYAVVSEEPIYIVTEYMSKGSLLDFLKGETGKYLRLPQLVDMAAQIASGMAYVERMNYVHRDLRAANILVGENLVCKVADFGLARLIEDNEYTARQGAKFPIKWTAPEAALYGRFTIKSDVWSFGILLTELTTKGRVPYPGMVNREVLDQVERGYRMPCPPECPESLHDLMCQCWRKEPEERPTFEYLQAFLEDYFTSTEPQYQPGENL

Take `COc1cccc(-c2cn(-c3ccc(C(=O)Nc4ccc(C(P(=O)(O)O)P(=O)(O)O)cc4)cc3)c3ncnc(N)c23)c1`: the IC50 amounted to 40000 nM.
In turn, `COc1cccc(-c2cn(-c3ccc(CCOP(=O)(O)CP(=O)(O)O)cc3)c3ncnc(N)c23)c1` returned a half-maximal inhibitory concentration (IC50) of 700 nM.
The same measure for `Nc1ncnc2c1c(-c1cccc(O)c1)cn2-c1ccc(CCO)cc1`: 40 nM; for `COc1cccc(-c2cn(-c3cccc(C(=O)Nc4ccc(C(P(=O)(O)O)P(=O)(O)O)cc4)c3)c3ncnc(N)c23)c1`: 19000 nM; for `Nc1ncnc2c1c(-c1cccc(O)c1)cn2-c1ccc(CCOP(=O)(O)CP(=O)(O)O)cc1`: 60 nM.
Molecule `COc1cccc(-c2cn(-c3ccc(C(=O)NCCCP(=O)(O)CP(=O)(O)O)cc3)c3ncnc(N)c23)c1` displayed a concentration for half-maximal inhibition (IC50) of 250 nM.
The result for `COc1cccc(-c2cn(-c3cccc(C(=O)O)c3)c3ncnc(N)c23)c1` reads 4000 nM; that for `CN(CCO)CCc1ccc(-n2cc(-c3cccc(O)c3)c3c(N)ncnc32)cc1`, 40 nM; that for `COc1cccc(-c2cn(-c3ccc(CCN(C)CCO)cc3)c3ncnc(N)c23)c1`, 160 nM.
The result for `COc1cccc(-c2cn(-c3cccc(C(=O)Nc4ccc(P(=O)(O)O)c(P(=O)(O)O)c4)c3)c3ncnc(N)c23)c1` reads 2500 nM; that for `COc1cccc(-c2cn(-c3ccc(C(=O)O)cc3)c3ncnc(N)c23)c1`, 1500 nM; that for `CN(CCOP(=O)(O)CP(=O)(O)O)CCc1ccc(-n2cc(-c3cccc(O)c3)c3c(N)ncnc32)cc1`, 4 nM.
With `COc1cccc(-c2cn(-c3cccc(C(=O)NCCCP(=O)(O)CP(=O)(O)O)c3)c3ncnc(N)c23)c1`, the IC50 is 360 nM.
The same measure for `COc1cccc(-c2cn(-c3ccc(C(=O)Nc4ccc(P(=O)(O)O)c(P(=O)(O)O)c4)cc3)c3ncnc(N)c23)c1`: 870 nM.
The same measure for `Cc1ccc(-c2nn(-c3cccc(C(=O)NCc4ccc(P(=O)(O)O)c(P(=O)(O)O)c4)c3)c3ncnc(N)c23)cc1`: 320 nM.
The result for `Cc1ccc(-c2nn(-c3cccc(C(=O)NCCCP(=O)(O)CP(=O)(O)O)c3)c3ncnc(N)c23)cc1` reads 400 nM; that for `Nc1ncnc2c1c(-c1cccc(O)c1)nn2-c1cccc(P(=O)(O)CC(=O)O)c1`, 20 nM.
Regarding `COc1cccc(-c2nn(-c3cccc(P(=O)(O)CC(=O)O)c3)c3ncnc(N)c23)c1`, the midpoint of inhibition, the IC50, lay at 1600 nM.
The molecule `COc1cccc(-c2cn(-c3ccc(CCN(C)CCOP(=O)(O)CP(=O)(O)O)cc3)c3ncnc(N)c23)c1` displayed a half-inhibitory concentration (IC50) of 310 nM.
In turn, `Cc1ccc(-c2nn(CCCCOP(=O)(O)CP(=O)(O)O)c3ncnc(N)c23)cc1` displayed an IC50 of 680 nM.
